Earlier results on 2 compounds are cited in patent publication US9579299B2, “CNS pharmaceutical compositions and methods of use” (TARGIA PHARMACEUTICALS, priority 2008, dated 2017).

The conditions of data set [1]: in vivo; cited from earlier work.
In another data set the test system is treated patients. The settings on record: anti-epileptics; cited from earlier work.
The conditions of data set [2]: in vivo, cited from earlier work.

Like-named read-outs stand apart in the source and are kept apart here.

Take `NC(=O)N1c2ccccc2C=Cc2ccccc21` [Carbamazepine]: the Elimination Half-Life entry in data set [1] was “about 12 hours”. For the same compound, the Psychiatric side-effects entry in the data set with treated patients was “Depression, agitation, sedation, psychosis, cognitive”.
By Tmax is commonly meant the time from dosing to the highest level. As for `CN(C)CCC=C1c2ccccc2C=Cc2ccccc21` [Cyclobenzaprine], the Elimination Half-Life in data set [1] is 24 to 72 h. Moreover, in data set [2], the Half-life is 8 to 37 h and the Tmax is 1 to 2 h. In data set [2] (listed as Flexeril), the Half-life is 24 to 72 h and the Tmax was 1 h.
